Experimental data: patent US7312236B2, “Substituted (4-aminocyclohexen-1-yl)phenyl and (4-aminocyclohexen-1-yl)pyridinyl compounds as 5-HT1F agonists” (Eli Lilly and Company, priority 2004, dated 2007)

What was measured:
[1] = tested on: dural protein extravasation; assay: Dural protein extravasation assay (trigeminal ganglion stimulation); set-up: species or system rats or guinea pigs; conditions: in vivo
Protocol: The inhibition of dural protein extravasation is a functional assay for the neuronal mechanism of migraine. A compound's ability to inhibit dural protein extravasation can be tested as described in the following assay.
Anesthetize Harlan Sprague-Dawley rats (225-325 g) or guinea pigs from Charles River Laboratories (225-325 g) with sodium pentobarbital (intraperitoneal injection, 65 mg/kg or 45 mg/kg, respectively). For each animal, place the animal in a stereotaxic frame (David Kopf Instruments) with the incisor bar set at −3.5 mm for rats or −4.0 mm for guinea pigs. […]
Quantify the amount of Evans Blue dye in each sample using a fluorescence microscope (Zeiss) equipped with a grating monochronomator, a spectrophotometer, a computer-driven motorized stage, and an interface to a personal computer. For each dural membrane sample, measure fluorescence at 25 points (500 μm steps covering a 2.5×2.5 mm square area) using an excitation wavelength of approximately 535 nm and measuring the emission intensity at a wavelength of 600 nm. Determined the mean and standard deviation of these measurements. […]

rabbit saphenous vein = assay: Rabbit saphenous vein contraction; conditions: Oryctolagus cuniculus
Protocol: Bend the tips of two 30-gauge stainless steel hypodermic needles into an L-shape and slip them into the lumen of the polyethylene tubing. Gently push vein tissue from the cannula onto the needles. Separate the needles and attach the lower needle with thread to a stationary glass rod and the upper needle with thread to a force transducer (Statham UC-3). Mount the tissues in organ baths containing 10 mL of modified Krebs' solution. Maintain tissue bath solutions at 37° C. and […] […] Apply an initial optimum resting force of 4 grams to the vein tissue. Record isometric contractions as changes in grams of force on a Beckman Dynograph with Statham UC-3 transducers and microscale accessory attachments. […] Flush the bath, allow the tissue to re-equilibrate under a 4 gram force, add test compound and record the force of contraction. Add additional compound to achieve the next concentration in a range of compound concentrations to generate cumulative agonist concentration-response curves for each test compound. Tissues can be used to generate up to two agonist concentration-response curves. […] Two important parameters can be measured with this vasoconstriction assay, saphenous vein contraction (EC50) and maximal contraction as a percentage of the maximal KCl response (%max KCl).

With `CNS(=O)(=O)Cc1ccc2[nH]cc(CCN(C)C)c2c1` [sumatriptan] the “extravasation inhibition ID50” value [1] was 2.6e-08 mmol/kg and the EC50 (rabbit saphenous vein) was 0.66 µM.
